Results as given in PMC3025356, “Mechanism of the Ca^2+-Dependent Interaction between S100A4 and Tail Fragments of Nonmuscle Myosin Heavy Chain IIA” (Journal of Molecular Biology, 2011).
Read-outs that look alike come from different tables or passages of the source. Each block holds one molecule with its values, some of them ahead of it.

Key:
S100A4 [1] = molecular target: T1, S100A4 (Homo sapiens, UniProt P26447); conditions: cited from earlier work
T1 construct: We used full-length S100A4 for this analysis; made in house; host or cells: Escherichia coli BL21(DE3)
T1 sequence (P26447 whole entry): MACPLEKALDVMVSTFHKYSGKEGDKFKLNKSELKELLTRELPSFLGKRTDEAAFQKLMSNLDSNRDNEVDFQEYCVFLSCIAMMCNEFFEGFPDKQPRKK
From the text: The site between helix III and helix IV of S100A4, exposed in the presence of Ca^2+, could accommodate an α-helical target of about 16 residues. The longer M32 mini ...

S100A4 [2] = molecular target: T1, S100A4; test: Summary of rate and equilibrium constants defined according to Scheme 1; assay type: binding; conditions: for k− 3: Ca^2+ dissociation from peptide–S100A4–Ca^2+; for k2: peptide association to S100A4–Ca^2+; for k− 2: peptide dissociation from S100A4–Ca^2+
From the text: The interaction of myosin tail fragments (M) with S100A4 depends on [Ca^2+], with little detectable binding in the absence of Ca^2+.[2,7,17] Scheme 1 presents a minimal pathway describing the thermodynamics and kinetics of this interaction, where arrow lengths indicate the approximate position of the equilibria involved.
[formula] Scheme 1 Ca2+ and myosin peptide (M) binding to S100A4.
The binding of Ca^2+ and a target peptide to S100A4, as shown in Scheme 1, is thermodynamically coupled so that K1K2 = K0K3. For simplicity, we assume a 1:1 stoichiometry and independent binding sites, which are unlikely to be true at least for the longer fragments. However, the trends in binding remain valid for more complex cases. Binding of target peptides to S100A4 in the absence of Ca^2+ is weak (K0 > 100 μM), while binding of target peptides to S100A4 in the presence of Ca^2+ (K2) is around a micromolar or less for longer fragments. Knowing that Ca^2+ binding to S100A4 has K1 = 2–5 μM (from the ITC data above and the literature[14,17,18]) requires that Ca^2+ binding to the M–S100A4 complex be very tight (K3 < 0.15 μM and even lower for M200). The latter cannot be easily determined directly as it requires protein concentrations greater than K0 (i.e., >>100 μM) so that the proteins remain bound together throughout the titration with Ca^2+. However, K3 is readily determined by calculation because values or limits for K0, K1, and K2 are available (Table 2). This aspect is addressed further below for M200, which has the complication of forming filaments at the ionic strength used.

S100A4 [3] = molecular target: T1, S100A4; test: Fluorescence anisotropy titration, F-M16^N binding to S100A4
Procedure: Titration (circles) was carried out in 20 mM NaCl, 10 mM Hepes, 1 mM Mg^2+, and 100 μM Ca^2+ at pH 7.5 and 20 °C. […] (squares).
Fluorescence spectra and anisotropy measurements were recorded using an SLM 8000 spectrofluorimeter (SLM, Urbana, IL). Fluorescein anisotropy measurements were carried out in L-format using a 515-nm emission filter. The four combinations of vertical and horizontal polarisers (vv, vh, hh, and hv) were each recorded for 30 s, and then the initial setting (vv) was re-read to check for signal stability. Calculations of the total fluorescence (Ivv + 2Ivh) and anisotropy (Ivv − Ivh/(Ivv + 2Ivh)), corrected for the g factor (hh/hv), were performed using an Excel spreadsheet. […] Note that the small correction for the emission intensity weighting to the observed anisotropy was not applied to these competitive titrations as the error will tend to cancel.

S100A4 [4] = molecular target: T1, S100A4; test: Stopped-flow fluorescein fluorescence, kinetics of myosin peptide binding to S100A4; conditions: for dissociation rate constants, F-M16N vs M32: modelled
Procedure: (§1) Stopped-flow measurements were carried out using an SX18-MV apparatus (Applied Photophysics Ltd., Leatherhead, UK) with a dead time of 1.5 ms.[40] Records were generally captured on a logarithmic time base. Absorption (turbidity) measurements were usually recorded using a 10-mm pathlength, while fluorescence was recorded with a 2-mm pathlength for excitation and emission. The stated concentrations of components refer to the reaction chamber after mixing, unless otherwise indicated. Tyrosine fluorescence was excited at 280 nm, and the emission was collected through a UG11 bandpass filter plus a 305-nm longpass filter.[18] Fluorescein fluorescence was excited at 480 nm, and the emission was detected through a 515-nm longpass filter. Quin-2 fluorescence was measured by excitation at 336 nm, and emission was collected with a 455-nm longpass filter. For simultaneous recording of light scatter, a second channel was monitored through a UG11 filter. Rate constants were obtained by fitting to single-exponential or double-exponential functions using Kaleidagraph (Synergy Software) or Applied Photophysics Pro-Data software. Modeling of kinetic schemes was performed using Berkeley Madonna software.
The value of K5 (scheme 2) was estimated from two independent experiments. From the competition
(§2) A second estimate was calculated from the apparent Ca2+ binding constant observed in the turbidity assay […]
Fig. S2. (a) Displacement of 0.1
monitored by fluorescein emission intensity. […] (b)
Ca2+ was mixed with 1 mM EGTA. […] Note in these
stopped-flow measurements of fluorescein intensity, no polarising optics were present at the magic angle

S100A4 [5] = molecular target: T1, S100A4; test: Quin-2 fluorescence, Ca^2+ dissociation from S100A4 in the presence of target peptides; assay type: binding
Procedure: Ca^2+ dissociation measurements for wild-type S100A4, using Quin-2 as described above, were repeated as a control for the effect of target peptides on this process. On mixing 10 μM S100A4 in the presence of Ca^2+ with 100 μM Quin-2, the observed profile was fitted to a single exponential with kobs = 17 s^− 1 (Fig. 5a; cf. k− 1 in Scheme 1).
Fig. 5 Dissociation of Ca^2+ from S100A4 in the absence and in the presence of target peptides monitored using Quin-2 fluorescence. (a) Mixed with 100 μM Quin-2 was 10 μM S100A4 + 50 μM Ca^2+ (stopped-flow reaction chamber concentrations). A superposed fit to a single exponential yields kobs = 17 s^− 1. […] (d) As in (a), but with 2.5 μM M200 premixed with 5 μM S100A4. A biphasic exponential fit yielded rate constants of 13 s^− 1 (A = 26%) and 0.30 s^− 1 (A = 74%). […] Experiments were carried out in either 20 mM NaCl, 20 mM Tris, 1 mM DTT, and 100 μM Ca^2+ at pH 7.5 and 20 °C (a and b; cf. Malashkevich et al.[17]), or 100 mM NaCl, 10 mM Hepes, and 100 μM Ca^2+ at pH 7.5 and 20 °C (c and d). […] Rate constants were unaffected by the inclusion of 1 mM Mg^2+.
as §1, with “Rate constants were obtained by fitting to single-exponential or double-exponential functions using Kaleidagraph (Synergy Software) or Applied Photophysics Pro-Data software. Modeling of kinetic schemes was performed using Berkeley Madonna software.” left out

S100A4 [6] = molecular target: T1, S100A4; test: Competition of M32/M16^N with M200 for S100A4 (turbidity); assay type: biochemical; conditions: 250 μM peptide, 5 μM M200, 10 μM S100A4, Ca^2+
Procedure: Fig. 9 Dissociation of M200 filaments by S100A4. (a) Initially, M200 was added (i) from a concentrated stock in 0.5 M NaCl to give a final concentration of 5 μM M200 (with respect to the polypeptide chain) in 100 mM NaCl, 10 mM Hepes, and 0.1 mM Ca^2+ at pH 7.5 and 20 °C. A biphasic rise in turbidity was recorded for 200 s (continuous line). Then 10 μM S100A4 (with respect to monomer concentration) was added (ii), followed by 0.2 mM EGTA (iii) and 1 mM Ca^2+ (iv). […] (b) M200 was diluted (i) into 100 mM NaCl to form filaments as in (a), then 5 μM S100A4 was added (ii), causing a 54% drop in turbidity. A further 5 μM S100A4 (iii) caused turbidity to fall to almost zero. (c) Stopped-flow records monitoring the dissociation of 5 μM M200 filaments on jumping [NaCl] from 100 mM to 120 mM NaCl. Other components of the buffer were 20 mM Hepes, 1 mM Mg^2+, and 100 μM Ca^2+ at pH 7.5 and 20 °C. […] In the presence of 20 μM S100A4 (lower trace), the turbidity decreased by 87% with a rate constant of 0.2 s^− 1.
Further information on Scheme 2 was obtained from competition assays. […] An independent estimate of K5 based on the Ca^2+ dependence of the turbidity assay yielded a value of 0.003 μM (see Supplementary Data).
The decrease in fluorescence, […]
that F-M16N binding was slightly faster. […]
as §2

Molecule: R1893-R1923 myosin fragment: R1893-R1923 myosin fragment of Malashkevich et al.
stoichiometry (S100A4 [1]): ~0.5 mol of peptide per mole of S100A4 (dimer)

Molecule: CSCC[C@H](NC(=O)[C@H](C)NC(=O)[C@H](CC(=O)O)NC(=O)CCCCCNC(=S)Nc1ccc2c(c1)C(=O)OC21c2ccc(O)cc2Oc2cc(O)ccc21)C(=O)N[C@@H](CC(N)=O)C(=O)N[C@@H](CCCNC(=N)N)C(=O)N[C@@H](CCC(=O)O)C(=O)N[C@H](C(=O)N[C@@H](CO)C(=O)N[C@@H](CO)C(=O)N[C@@H](CC(C)C)C(=O)N[C@@H](CCCCN)C(=O)N[C@@H](CC(N)=O)C(=O)N[C@@H](CCCCN)C(=O)N[C@@H](CC(C)C)C(=O)N[C@@H](CCCNC(=N)N)C(=O)N[C@@H](CCCNC(=N)N)C(N)=O)C(C)C [F-M16^N]
k1 (S100A4 [2]; Ca^2+ association to free S100A4, common to all targets): 3.2 μM^− 1 s^− 1
k3 (S100A4 [2]; Ca^2+ association to peptide–S100A4): > 500 μM^− 1 s^− 1
k− 1 (S100A4 [2]; Ca^2+ dissociation from free S100A4, common to all targets): 16 s^− 1
k− 3 (S100A4 [2]): 9.4 s^− 1
k2 (S100A4 [2]): 4.9 μM^− 1 s^− 1
k− 2 (S100A4 [2]): 6.2 s^− 1
quench of total fluorescein fluorescence on binding (S100A4 [3]): ~35%
displacement rate constant by excess M32 (S100A4 [4]; 0.1 μM F-M16^N, 5 μM S100A4, 60 μM M32, Ca^2+): 7.7 s^− 1
kobs on mixing with EGTA (Ca^2+ dissociation from complex, k− 3) (S100A4 [4]; 0.1 μM F-M16^N, 10 μM S100A4, 50 μM Ca^2+, 1 mM EGTA): 9.4 s^− 1
kobs of binding (S100A4 [4]; 0.1 μM F-M16^N, 25 μM S100A4): 138 s^− 1
calculated kobs via k− 2 and k− 1 route (S100A4 [4]; 10 μM S100A4): 1.8 s^− 1
maximum kobs (S100A4 [4]; above 25 μM S100A4): 150 s^− 1
association rate constant k2 relative to M32 (S100A4 [4]; competition with equimolar M32, modelled): about twice as large as that of M32
fluorescence quench overshoot (S100A4 [4]; equimolar F-M16N and M32 mixed with equimolar S100A4): 12%
amplitude of fluorescence decrease with competitor (S100A4 [4]; equimolar F-M16N and M32 with equimolar S100A4, relative to absence of M32): about half the amplitude observed in the absence of M32
dissociation rate constants, F-M16N vs M32 (S100A4 [4]): similar
kon (S100A4 [4]; read-out: association rate constant kon (k2)): 4.9e+06 M⁻¹ s⁻¹
koff (S100A4 [4]; read-out: dissociation rate constant koff (k− 2)): 6.2 s⁻¹
k3, Ca^2+ binding to preformed peptide–S100A4 complex (S100A4 [4]; thermodynamic balance of Scheme 1): > 5 × 10^8 M^− 1 s^− 1

Kd (S100A4 [2]; Ca^2+ binding to peptide–S100A4, limit from K3 = K1K2/K0, read-out: K3): < 0.15 µM
k− 3 (S100A4 [2]): 3.2 s^− 1
k2 (S100A4 [2]): ∼ 2 μM^− 1 s^− 1
Kd (S100A4 [2]; peptide binding to S100A4 without Ca^2+, read-out: K0): > 100 µM
k− 2 (S100A4 [2]): ∼ 6 s^− 1
kobs, Ca^2+ dissociation with peptide (S100A4 [5]; 50 μM peptide premixed with 10 μM S100A4, 100 mM NaCl, 10 mM Hepes, 100 μM Ca^2+, pH 7.5, 20 °C): 3.3 s^− 1
inhibition of turbidity change amplitude (S100A4 [6]): 50%
dissociation rate constants, F-M16N vs M32 (S100A4 [4]): similar
Molecule: CSCC[C@H](NC(=O)[C@H](C)NC(=O)[C@H](CC(=O)O)NC(=O)[C@H](C)NC(C)=O)C(=O)N[C@@H](CC(N)=O)C(=O)N[C@@H](CCCNC(=N)N)C(=O)N[C@@H](CCC(=O)O)C(=O)N[C@H](C(=O)N[C@@H](CO)C(=O)N[C@@H](CO)C(=O)N[C@@H](CC(C)C)C(=O)N[C@@H](CCCCN)C(=O)N[C@@H](CC(N)=O)C(=O)N[C@@H](CCCCN)C(=O)N[C@@H](CC(C)C)C(=O)N[C@@H](CCCNC(=N)N)C(=O)N[C@@H](CCCNC(=N)N)C(=O)NCC(=O)N[C@@H](CC(=O)O)C(=O)N[C@@H](CC(C)C)C(=O)N1CCC[C@H]1C(=O)N[C@@H](Cc1ccccc1)C(=O)N[C@H](C(=O)N[C@H](C(=O)N1CCC[C@H]1C(=O)N[C@@H](CCCNC(=N)N)C(=O)N[C@@H](CCCNC(=N)N)C(=O)N[C@@H](CCSC)C(=O)N[C@@H](C)C(=O)N[C@@H](CCCNC(=N)N)C(=O)N[C@@H](CCCCN)C(=O)NCC(N)=O)C(C)C)C(C)C)C(C)C [M32]
stoichiometry (discussion) (S100A4 [5]; S100A4 concentration from absorbance at 280 nm): one mol of M32 peptide binds to two S100A4 monomers
